What was measured:
[1] = tested on: tubulin; assay: inhibition of tubulin polymerization; type: biochemical
[2] = tested on: human cancer cell lines (HeLa, A549, H1299, MCF-7); assay: antiproliferative activity, cancer cell lines tested; type: cell-based; settings: read-out: IC50 against the cancer cell lines tested
[3] = tested on: human cervix carcinoma (HeLa); settings: read-out: IC50 HeLa; values taken from the literature for comparison; cited from earlier work
[4] = tested on: human non-small-cell lung carcinoma (A549); settings: read-out: IC50 A549; values taken from the literature for comparison; cited from earlier work
[5] = tested on: breast adenocarcinoma (MCF-7); settings: read-out: IC50 MCF-7; values taken from the literature for comparison; cited from earlier work

COc1ccc(-c2nnnn2-c2cc(OC)c(OC)c(OC)c2O)c(O)c1 [Compound 5a]
inhibitors of tubulin polymerization (result in words) [1]: inactive | IC50 [2]: > 45000 nM

COc1ccc(-c2nnnn2-c2cc(OC)c(OC)c(OC)c2O)cc1 [Compound 5b]
inhibitors of tubulin polymerization (result in words) [1]: inactive | IC50 [2]: > 45000 nM

COc1ccc(-c2nnnn2-c2cc(OC)c(OC)c(OC)c2)cc1 [Compound 5f]
IC50 [3]: 2.6 nM | IC50 [4]: 222 ± 59 nM | IC50 [5]: 38.5 ± 5.8 nM
